Data reported in patent publication US20230085307A1, “PYRIDAZINONE COMPOUND AND HERBICIDE” (NISSAN CHEMICAL CORPORATION, priority 2019, published 2023).

Key:
windgrass [1] = test: Test Example 4: herbicidal effect by soil treatment (Table 19, symbol L); format: in vivo, windgrass (Apera spica-venti)
How it was run: (§1)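 In this soil treatment, the formulated compound reached the seeds only through the soil: seeds were buried about 1.5 cm deep in sterilized diluvial soil, then the diluted emulsion was sprayed over the surface. After three weeks at 25° C. to 30° C. in a greenhouse, effects were graded on criteria from an earlier test.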

lambsquarters [2] = test: Test Example 4: herbicidal effect by soil treatment (Table 19, symbol O); format: in vivo, lambsquarters (Chenopodium album)
How it was run: as §1

chickweed [3] = test: Test Example 5: herbicidal effect by foliage application, plastic box (Table 20, symbol P); format: in vivo, common chickweed (Stellaria media); conditions: foliage application, AAH 320 g/ha, three weeks after application
How it was run: (§2)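 Plants were sown into sterilized diluvial soil under about 1.5 cm cover and kept in a greenhouse at 25° C. to 30° C. Fourteen days on, foliage received an even spray of the diluted emulsion. Herbicidal or crop effect was judged three weeks afterwards.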

rice flat sedge = test: Test Example 3: herbicidal effect by foliage application, Wagner pot (Table 18, symbol E); format: in vivo, rice flat sedge (Cyperus iria)
How it was run: (§3)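 Plants were sown in alluvial soil held under 0.1–0.5 cm standing water and grown 14 days in a greenhouse at 25–30 °C. An emulsifiable formulation, water-diluted to the set dose, was then sprayed onto the foliage, and effects were scored three weeks later using previously defined criteria.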

redroot pigweed [4] = test: Test Example 4: herbicidal effect by soil treatment (Table 19, symbol N); format: in vivo, redroot pigweed (Amaranthus retroflexus)
How it was run: as §1

windgrass [5] = test: Test Example 5: herbicidal effect by foliage application, plastic box (Table 20, symbol L); format: in vivo, windgrass (Apera spica-venti); conditions: foliage application, three weeks after application
How it was run: as §2

Italian ryegrass [6] = test: Test Example 5: herbicidal effect by foliage application, plastic box (Table 20, symbol K); format: in vivo, Italian ryegrass (Lolium multiflorum); conditions: foliage application, three weeks after application
How it was run: as §2

persian speedwell [7] = test: Test Example 4: herbicidal effect by soil treatment (Table 19, symbol R); format: in vivo, Persian speedwell (Veronica persica)
How it was run: as §1

persian speedwell [8] = test: Test Example 5: herbicidal effect by foliage application, plastic box (Table 20, symbol R); format: in vivo, Persian speedwell (Veronica persica); conditions: foliage application, three weeks after application
How it was run: as §2

redroot pigweed [9] = test: Test Example 5: herbicidal effect by foliage application, plastic box (Table 20, symbol N); format: in vivo, redroot pigweed (Amaranthus retroflexus); conditions: foliage application, AAH 320 g/ha, three weeks after application
How it was run: as §2

southern crabgrass [10] = test: Test Example 4: herbicidal effect by soil treatment (Table 19, symbol F); format: in vivo, southern crabgrass (Digitaria ciliaris)
How it was run: as §1

wild oat [11] = test: Test Example 4: herbicidal effect by soil treatment (Table 19, symbol I); format: in vivo, wild oat (Avena fatua)
How it was run: as §1

green foxtail [12] = test: Test Example 5: herbicidal effect by foliage application, plastic box (Table 20, symbol G); format: in vivo, green foxtail (Setaria viridis); conditions: foliage application, three weeks after application
How it was run: as §2

barnyard grass [13] = test: Test Example 3: herbicidal effect by foliage application, Wagner pot (Table 18, symbol H); format: in vivo, barnyard grass (Echinochloa crus-galli)
How it was run: as §3

chickweed [14] = test: Test Example 4: herbicidal effect by soil treatment (Table 19, symbol P); format: in vivo, common chickweed (Stellaria media)
How it was run: as §1

Chinese sprangletop = test: Test Example 3: herbicidal effect by foliage application, Wagner pot (Table 18, symbol D); format: in vivo, chinese sprangletop (Leptochloa chinensis)
How it was run: as §3

blackgrass [15] = test: Test Example 5: herbicidal effect by foliage application, plastic box (Table 20, symbol J); format: in vivo, blackgrass (Alopecurus myosuroides); conditions: foliage application, three weeks after application
How it was run: as §2

barnyard grass [16] = test: Test Example 4: herbicidal effect by soil treatment (Table 19, symbol H); format: in vivo, barnyard grass (Echinochloa crus-galli)
How it was run: as §1

velvetleaf [17] = test: Test Example 4: herbicidal effect by soil treatment (Table 19, symbol M); format: in vivo, velvetleaf (Abutilon theophrasti)
How it was run: as §1

barnyard grass [18] = test: Test Example 5: herbicidal effect by foliage application, plastic box (Table 20, symbol H); format: in vivo, barnyard grass (Echinochloa crus-galli); conditions: foliage application, three weeks after application
How it was run: as §2

lambsquarters [19] = test: Test Example 5: herbicidal effect by foliage application, plastic box (Table 20, symbol O); format: in vivo, lambsquarters (Chenopodium album); conditions: foliage application, three weeks after application
How it was run: as §2

false cleavers = test: Test Example 5: herbicidal effect by foliage application, plastic box (Table 20, symbol Q); format: in vivo, false cleavers (Galium spurium); conditions: foliage application, three weeks after application
How it was run: as §2

velvetleaf [20] = test: Test Example 5: herbicidal effect by foliage application, plastic box (Table 20, symbol M); format: in vivo, velvetleaf (Abutilon theophrasti); conditions: foliage application, three weeks after application
How it was run: as §2

green foxtail [21] = test: Test Example 4: herbicidal effect by soil treatment (Table 19, symbol G); format: in vivo, green foxtail (Setaria viridis)
How it was run: as §1

Italian ryegrass [22] = test: Test Example 4: herbicidal effect by soil treatment (Table 19, symbol K); format: in vivo, Italian ryegrass (Lolium multiflorum)
How it was run: as §1

wild oat [23] = test: Test Example 5: herbicidal effect by foliage application, plastic box (Table 20, symbol I); format: in vivo, wild oat (Avena fatua); conditions: foliage application, three weeks after application
How it was run: as §2

southern crabgrass [24] = test: Test Example 5: herbicidal effect by foliage application, plastic box (Table 20, symbol F); format: in vivo, southern crabgrass (Digitaria ciliaris); conditions: foliage application, three weeks after application
How it was run: as §2

blackgrass [25] = test: Test Example 4: herbicidal effect by soil treatment (Table 19, symbol J); format: in vivo, blackgrass (Alopecurus myosuroides); conditions: amount of applied herbicide 320 g/ha
How it was run: as §1

[26] = amount of applied herbicide 320 g/ha

Compound: CCCC(=O)Oc1c(OC)nn(C)c(=O)c1-c1c(-c2cc(F)c(F)c(F)c2)sc2ccccc12 [1-187]
- L: windgrass, herbicidal effect rating (windgrass [1]; AAH 320 g/ha): 0 (Herbicidal rate of 5% or less (almost no effect))
- O: lambsquarters, herbicidal effect rating (lambsquarters [2]; AAH 320 g/ha): 4 (Herbicidal rate of 70% or more and less than 90%)
- P: chickweed, herbicidal effect (chickweed [3]): 3 (Herbicidal rate of 40% or more and less than 70%)
- herbicidal effect on E (rice flat sedge), rating 0-5 (rice flat sedge; 320 g/ha): 3 (Herbicidal rate of 40% or more and less than 70%)
- N: redroot pigweed, herbicidal effect rating (redroot pigweed [4]; AAH 320 g/ha): 0 (Herbicidal rate of 5% or less (almost no effect))
- L: windgrass, herbicidal effect (windgrass [5]; AAH 320 g/ha): 0 (Herbicidal rate of 5% or less (almost no effect))
- K: Italian ryegrass, herbicidal effect (Italian ryegrass [6]; AAH 320 g/ha): 0 (Herbicidal rate of 5% or less (almost no effect))
- R: persian speedwell, herbicidal effect rating (persian speedwell [7]; AAH 320 g/ha): 4 (Herbicidal rate of 70% or more and less than 90%)
- R: persian speedwell, herbicidal effect (persian speedwell [8]; AAH 320 g/ha): 5 (Herbicidal rate of 90% or more (almost completely withered))
- N: redroot pigweed, herbicidal effect (redroot pigweed [9]): 4 (Herbicidal rate of 70% or more and less than 90%)
- F: southern crabgrass, herbicidal effect rating (southern crabgrass [10]; AAH 320 g/ha): 0 (Herbicidal rate of 5% or less (almost no effect))
- I: wild oat, herbicidal effect rating (wild oat [11]; AAH 320 g/ha): 0 (Herbicidal rate of 5% or less (almost no effect))
- G: green foxtail, herbicidal effect (green foxtail [12]; AAH 320 g/ha): 0 (Herbicidal rate of 5% or less (almost no effect))
- herbicidal effect on H (barnyard grass), rating 0-5 (barnyard grass [13]; 320 g/ha): 0 (Herbicidal rate of 5% or less (almost no effect))
- P: chickweed, herbicidal effect rating (chickweed [14]; AAH 320 g/ha): 5 (Herbicidal rate of 90% or more (almost completely withered))
- herbicidal effect on D (Chinese sprangletop), rating 0-5 (Chinese sprangletop; 320 g/ha): 0 (Herbicidal rate of 5% or less (almost no effect))
- J: blackgrass, herbicidal effect (blackgrass [15]; AAH 320 g/ha): 0 (Herbicidal rate of 5% or less (almost no effect))
- H: barnyard grass, herbicidal effect rating (barnyard grass [16]; AAH 320 g/ha): 0 (Herbicidal rate of 5% or less (almost no effect))
- M: velvetleaf, herbicidal effect rating (velvetleaf [17]; AAH 320 g/ha): 0 (Herbicidal rate of 5% or less (almost no effect))
- H: barnyard grass, herbicidal effect (barnyard grass [18]; AAH 320 g/ha): 0 (Herbicidal rate of 5% or less (almost no effect))
- O: lambsquarters, herbicidal effect (lambsquarters [19]; AAH 320 g/ha): 5 (Herbicidal rate of 90% or more (almost completely withered))
- Q: false cleavers, herbicidal effect (false cleavers; AAH 320 g/ha): 0 (Herbicidal rate of 5% or less (almost no effect))
- M: velvetleaf, herbicidal effect (velvetleaf [20]; AAH 320 g/ha): 4 (Herbicidal rate of 70% or more and less than 90%)
- G: green foxtail, herbicidal effect rating (green foxtail [21]; AAH 320 g/ha): 0 (Herbicidal rate of 5% or less (almost no effect))
- K: Italian ryegrass, herbicidal effect rating (Italian ryegrass [22]; AAH 320 g/ha): 0 (Herbicidal rate of 5% or less (almost no effect))
- I: wild oat, herbicidal effect (wild oat [23]; AAH 320 g/ha): 0 (Herbicidal rate of 5% or less (almost no effect))
- F: southern crabgrass, herbicidal effect (southern crabgrass [24]; AAH 320 g/ha): 0 (Herbicidal rate of 5% or less (almost no effect))

Compound: COc1cc(F)ccc1-c1oc2ccc(C)cc2c1-c1c(O)c(C)nn(C)c1=O [9-009]
- L: windgrass, herbicidal effect grade (windgrass [1]; [26]): 0 (Herbicidal rate of 5% or less (almost no effect))
- O: lambsquarters, herbicidal effect grade (lambsquarters [2]; [26]): 3 (Herbicidal rate of 40% or more and less than 70%)
- Herbicidal effect on E (rice flat sedge), foliage application (rice flat sedge; [26]): 1 (Herbicidal rate of 5% or more and less than 20%)
- N: redroot pigweed, herbicidal effect grade (redroot pigweed [4]; [26]): 0 (Herbicidal rate of 5% or less (almost no effect))
- herbicidal effect on windgrass (L) (windgrass [5]; 320 g/ha): 0 (Herbicidal rate of 5% or less (almost no effect))
- herbicidal effect on Italian ryegrass (K) (Italian ryegrass [6]; 320 g/ha): 1 (Herbicidal rate of 5% or more and less than 20%)
- R: persian speedwell, herbicidal effect grade (persian speedwell [7]; [26]): 0 (Herbicidal rate of 5% or less (almost no effect))
- herbicidal effect on persian speedwell (R) (persian speedwell [8]; 320 g/ha): 3 (Herbicidal rate of 40% or more and less than 70%)
- F: southern crabgrass, herbicidal effect grade (southern crabgrass [10]; [26]): 2 (Herbicidal rate of 20% or more and less than 40%)
- J: blackgrass, herbicidal effect grade (blackgrass [25]): 0 (Herbicidal rate of 5% or less (almost no effect))
- I: wild oat, herbicidal effect grade (wild oat [11]; [26]): 0 (Herbicidal rate of 5% or less (almost no effect))
- herbicidal effect on green foxtail (G) (green foxtail [12]; 320 g/ha): 2 (Herbicidal rate of 20% or more and less than 40%)
- Herbicidal effect on H (barnyard grass), foliage application (barnyard grass [13]; [26]): 3 (Herbicidal rate of 40% or more and less than 70%)
- P: chickweed, herbicidal effect grade (chickweed [14]; [26]): 0 (Herbicidal rate of 5% or less (almost no effect))
- Herbicidal effect on D (Chinese sprangletop), foliage application (Chinese sprangletop; [26]): 0 (Herbicidal rate of 5% or less (almost no effect))
- herbicidal effect on blackgrass (J) (blackgrass [15]; 320 g/ha): 0 (Herbicidal rate of 5% or less (almost no effect))
- H: barnyard grass, herbicidal effect grade (barnyard grass [16]; [26]): 3 (Herbicidal rate of 40% or more and less than 70%)
- M: velvetleaf, herbicidal effect grade (velvetleaf [17]; [26]): 0 (Herbicidal rate of 5% or less (almost no effect))
- herbicidal effect on barnyard grass (H) (barnyard grass [18]; 320 g/ha): 3 (Herbicidal rate of 40% or more and less than 70%)
- herbicidal effect on lambsquarters (O) (lambsquarters [19]; 320 g/ha): 3 (Herbicidal rate of 40% or more and less than 70%)
- herbicidal effect on false cleavers (Q) (false cleavers; 320 g/ha): 4 (Herbicidal rate of 70% or more and less than 90%)
- herbicidal effect on velvetleaf (M) (velvetleaf [20]; 320 g/ha): 2 (Herbicidal rate of 20% or more and less than 40%)
- G: green foxtail, herbicidal effect grade (green foxtail [21]; [26]): 3 (Herbicidal rate of 40% or more and less than 70%)
- K: Italian ryegrass, herbicidal effect grade (Italian ryegrass [22]; [26]): 0 (Herbicidal rate of 5% or less (almost no effect))
- herbicidal effect on wild oat (I) (wild oat [23]; 320 g/ha): 2 (Herbicidal rate of 20% or more and less than 40%)
- herbicidal effect on southern crabgrass (F) (southern crabgrass [24]; 320 g/ha): 2 (Herbicidal rate of 20% or more and less than 40%)
